Reference: patent publication US9949976B2, “Kinase inhibitor and use thereof” (Sihuan Pharmaceutical Holdings Group Ltd., priority 2013, dated 2018)

How the values were obtained:
[1] = Linear pharmacokinetics in rat (PO); type: in vivo, male SD rat; conditions: for AUC(0-t) / Cmax / Tmax: male, SD, plasma
Experimental: Test animal: male SD rat, 3 rats/administration dose/test compound, weight: 200-240 g/rat.
100 μL whole blood was collected from caudal vein at each time point, added to an anticoagulation tube containing K2EDTA, and centrifuged at 8000 r/min in a high speed centrifuge for 6 min to separate the plasma; the plasma was stored in a refrigerator at −80° C.
The plasma samples of control agent and compound 1 were analyzed by precipitation of protein: to 30 μL plasma, 200 μL internal standard (acetonitrile solution containing 50 ng/mL PD0332991, the formula of which is
[drawing 62] prepared by referring to the method in Patent CN101001857A) was added; the resultant mixture was vortexed for 10 min at 1500 r/min, and centrifuged for 20 min at 4000 r/min; to 100 μL supernatant, 100 μL water was added; the resultant mixture was mixed homogeneously under vortexing and analyzed by LC-MS/MS.

[2] = PK in Colo-205 subcutaneous tumor model of BALB/c nude mouse; type: in vivo; conditions: female, plasma, Colo-205 tumor-bearing nude mouse, PO QD 22 days, after last administration
Experimental: Test animal: female nude mouse (BALB/c), 8 mice/dose group/test compound, weight: 19-27 g/mouse.
COLO205 cancer cells were cultured in RPMI-1640 medium containing inactivated 10% fetal bovine serum, 100 U/mL penicillin, 100 μg/mL streptomycin and 2 mM glutamine, in a 37° C., 5% CO2 incubator. The initial concentration of cell culture was 5×10^5 cells/mL, and the cells were transferred to other bottles every 3 or 4 days and passaged. Tumor cells in exponential growth phase were used for in vivo tumor seeding.
COLO205 tumor cells suspended in PBS were seeded subcutaneously to right lateral thorax of experimental animal at 1×10^7 cells/0.1 mL, and the animal was sacrificed when the tumor grew to a volume of 800 mm^3 to 1000 mm^3; under aseptic conditions, tumors were peeled off, and necrotic tissues were removed; the well-grown tumor tissues were selected; the tumor cells were isolated and subjected to primary culture and proliferation, and then were subcutaneously seeded to animal. The tumor cells were passaged for two generations in mice by this method, and the primary culture cells were seeded subcutaneously to right lateral thorax of experimental animal, at 5×10^6 cells/0.1 mL per animal. When tumor grew to a volume of about 100 mm^3, the animals were grouped and administered. For oral administration, the administration volume is 0.1 mL/10 g body weight of animal.
Blood collection: blood was collected from intraocular canthus. After the last administration (22th Day) of control agent and compound 1, blood/tumor was collected at the same time points, wherein 8 nude mice for each dose group were divided into A and B groups
A group (No. 1-4): blood was collected at 15 min, 1 h and 2 h, and the mouse was sacrificed after blood collection at 2 h;
B group (No. 5-8): blood was collected at 4 h, 8 h and 24 h, and the mouse was sacrificed after blood collection at 24 h;
100 μL whole blood at each time point was collected and added to an anticoagulation tube containing K2EDTA, and centrifuged at 4500 r/min at 4° C. in a high speed centrifuge for 5 min to separate the plasma; the plasma was stored in a refrigerator at −80° C.
The plasma samples of control agent and compound 1 were analyzed by precipitation of protein: to 50 μL plasma, 150 μL internal standard (acetonitrile solution containing 50 ng/mL dexamethasone) was added; the resultant mixture was vortexed at 1500 r/min for 3 min, and centrifuged at 4000 r/min for 20 min; to 100 μL supernatant, 100 μL water was added; the resultant mixture was mixed homogeneously under vortexing and analyzed by LC-MS/MS.

[3] = In vivo assay for blood brain barrier permeability in rat; conditions: male, SD, 30 mg/kg, PO
Experimental: Test animal: male SD rat, 3 rats/test compound/time point, weight: 250-300 g/rat
After separate PO administration of control agent and compound 1, blood was collected by cardiac puncture at 2, 4, 24 and 48 h; about 8 ml whole blood was collected, and placed in a centrifuge tube containing K2EDTA anticoagulant agent; cerebrospinal fluid and brain tissue were also collected at the same time, 3 rats at each time point. The collected whole blood was centrifuged at 3000 r/min at 4° C. in a high speed centrifuge for 10 min to separate the plasma; and the plasma was stored in a refrigerator at −80° C. After sample collection, the concentrations of control agent and compound 1 in plasma, brain tissue and cerebrospinal fluid were determined, respectively.
The plasma samples of control agent and compound 1 were analyzed by precipitation of protein: the test samples were taken from the refrigerator (−80° C.), thawed at room temperature, and then vortexed for 3 min; to 30 μL plasma, 200 μL internal standard (acetonitrile solution containing 25 ng/mL PD0332991) was added; the resultant mixture was vortexed for 10 min at 1500 r/min, and centrifuged at 4000 r/min for 20 min; to 100 μL supernatant, 100 μL water was added; the resultant mixture was mixed homogeneously under vortexing and analyzed by LC-MS/MS.
The brain tissue and cerebrospinal fluid samples for control agent and compound 1 were analyzed by precipitation of protein: the test samples were taken from the refrigerator (−80° C.), thawed at room temperature, and then vortexed for 3 min; to 20 μL homogenated brain tissue sample, 200 μL internal standard (a solution of methanol and water at 1:1 containing 40 ng/mL dextromethorphan and 50 ng/mL dextrorphan) was added; the resultant mixture was vortexed for 3 min at 1500 r/min, and centrifuged at 4° C., 4000 g for 5 min; to 100 μL supernatant, 50 μL 0.1% formic acid-water was added; the resultant mixture was mixed homogeneously under vortexing and analyzed by LC-MS/MS. Cerebrospinal fluid sample was treated by the same way as the homogenated brain tissue sample.

SMILES | AUC(0-t) ([1]; 15 mg/kg) | Cmax ([1]; 15 mg/kg) | Tmax ([1]; 15 mg/kg) | AUC(0-t) ([1]; 45 mg/kg) | Cmax ([1]; 45 mg/kg) | Tmax ([1]; 45 mg/kg) | AUC(0-t) ([1]; 135 mg/kg) | Cmax ([1]; 135 mg/kg) | Tmax ([1]; 135 mg/kg) | AUC(0-t) ([2]; 25 mg/kg) | Cmax ([2]; 25 mg/kg) | Tmax ([2]; 25 mg/kg) | AUC(0-t) ([2]; 100 mg/kg) | Cmax ([2]; 100 mg/kg) | Tmax ([2]; 100 mg/kg) | AUC(0-t) ([3]; dose 30, brain tissue) | Cmax ([3]; dose 30, brain tissue) | Tmax ([3]; dose 30, brain tissue) | AUC(0-t) ([3]; dose 30, cerebrospinal fluid) | Cmax ([3]; dose 30, cerebrospinal fluid) | other results
CCN1CCN(Cc2cnc(Nc3cc(-c4cc(F)c5nc(C)n(C(C)C)c5c4)c(F)cn3)nc2)CC1 [Compound 1, 5-((4-ethylpiperazin-1-yl)methyl)-N-(5-fluoro-4-(4-fluoro-1-isopropyl-2-methyl-1H-benzo[d]imidazol-6-yl)pyridin-2-yl)pyrimidin-2-amine] | 12600 ng·h/mL | 941 ng/mL | 4 h | 37700 ng·h/mL | 1580 ng/mL | 4 h | 136000 ng·h/mL | 2410 ng/mL | 24 h | 12300 ng·h/mL | 1140 ng/mL | 2 h | 48300 ng·h/mL | 2420 ng/mL | 8 h | 12100 ng·h/mL | 535 ng/mL | 4 h | 1290 ng·h/mL | 106 ng/mL | linear pharmacokinetic properties ([1]; 15-135 mg/kg, AUClast increases with dose in a linear manner): good linear pharmacokinetic properties; Tmax ([3]; dose 30, cerebrospinal fluid): 4 h; AUC(0-t) ([3]; dose 30, plasma): 49200 ng·h/mL; Cmax ([3]; dose 30, plasma): 2610 ng/mL; Tmax ([3]; dose 30, plasma): 4 h
CCN1CCN(Cc2ccc(Nc3ncc(F)c(-c4cc(F)c5nc(C)n(C(C)C)c5c4)n3)nc2)CC1 [LY2835219, reference compound] | 9690 ng·h/mL | 504 ng/mL | 4 h | 32600 ng·h/mL | 860 ng/mL | 4 h | 97600 ng·h/mL | 1370 ng/mL | 24 h | 9120 ng·h/mL | 733 ng/mL | 4 h | 23000 ng·h/mL | 1080 ng/mL | 8 h | 18100 ng·h/mL | 673 ng/mL | 4 h | 451 ng·h/mL | 11.8 ng/mL | Tmax ([3]; dose 30, cerebrospinal fluid): 4 h; AUC(0-t) ([3]; dose 30, plasma): 40500 ng·h/mL; Cmax ([3]; dose 30, plasma): 1500 ng/mL; Tmax ([3]; dose 30, plasma): 4 h
